Several values for one entry are separate records, joined by “and”; a condition that tells them apart may be missing. Equal entries are not always repeated. Entries after “also recorded” stand apart in the source; their conditions may differ.
How the values were obtained:
[1] = test system: rabbit eyes (intraocular pressure); test: Salted Rabbit Test (IOP in rabbits fed a sodium enriched diet); format: in vivo, adult white rabbits; details: for Lowering of IOP (in words): 6-chloro: 30, 60 and 120 minutes, ethoxzolamide: any time point after dosing; for Statistical significance of IOP change: N.S. = non-significant; for Average IOP change: 1% w/v suspension topical; for Average difference in IOP between both eyes just prior to dosing: t = 0, pre-dose
[2] = test system: rabbit eyes (intraocular pressure); test: as above; format: in vivo, adult white rabbits; details: for IOP change, (IOPDET - IOPCET) - (IOPDEO - IOPCEO) / Difference in IOP between both eyes just prior to dosing (IOPDEO - IOPCEO): individual rabbit; for IOP change, (IOPDET - IOPCET) - (IOPDEO - IOPCEO): 1% w/v suspension topical; for Difference in IOP between both eyes just prior to dosing (IOPDEO - IOPCEO): t = 0, pre-dose; for Effectiveness in lowering IOP, comparison (in words): the two rabbit models of Examples 10 and 11
Experimental: The treated eye was selected randomly, whereas, the fellow eye received placebo; the observer was masked.
In particular, a 1% w/v suspension of 6-chloro-2-benzothiazolesulfonamide analog was prepared in a standard vehicle consisting of aqueous pH 7.8 phosphate buffer, 0.05% w/v tween 80, and sufficient NaC1 to make the preparation isotonic. One drop, followed by two drops each at one minute intervals, was applied to one eye of normal adult white rabbits. Fifteen rabbits were used in the experiment. The treated eye was selected randomly, whereas, the fellow eye received placebo. The observer was masked. The intraocular pressure (IOP) was measured with an Alcon […] pneumotonometer. A drop of local anesthetic was applied just prior to making the measurement. The IOP was measured in both rabbit eyes at 0, 30, 60, 90 and 120 minutes following instillation of the new antiglaucoma agent.

[3] = test system: rabbit eyes (intraocular pressure); test: Rabbit Eye Tests (In-Vivo IOP Determinations), Water Loading Model; set-up: species or system New Zealand albino rabbits; details: for drop in IOP (right eye) compared to no drug control: 6-ethoxy-N-methyl: at 90 and 120 minutes, 6-chloro: 15 through 90 minutes, ethoxzolamide: any time point
Experimental: New Zealand albino rabbits either sex and weighing 1.9-2.4kg were used. Control IOP measurements were made by applanation tonometry (Alcon Applanation Pneumatonograph®) prior to water loading and drug administration. The rabbits were first anesthelized and then water loaded using 100 ml/kg (sterile water for injection). The water dose was given intraperitoneally over 15-20 minutes Four test formulations were administered topically to the right eye of each rabbit immediately following water loading. The vehicle was administered to the left eye of each rabbit. The test formulations contained 1% suspensions of ethoxzolamide, and the other indicated compounds, and a vehicle (coded E). The vehicle contained a pH 7.2 phosphate buffer and 0.05% polysorbate 80 (Tween-80®). IOP measurement were made in right and left eyes at 15, 30, […], 60, 90, 120 and 180 minutes after topical administration.

[4] = 15 min after topical administration, 1% suspension, 50 ul q 2 min × 6, right eye
[5] = 30 min after topical administration, 1% suspension, 50 ul q 2 min × 6, right eye
[6] = 60 min after topical administration, 1% suspension, 50 ul q 2 min × 6, right eye
[7] = 90 min after topical administration, 1% suspension, 50 ul q 2 min × 6, right eye
[8] = 120 min after topical administration, 1% suspension, 50 ul q 2 min × 6, right eye
[9] = 180 min after topical administration, 1% suspension, 50 ul q 2 min × 6, right eye
[10] = time 0 min, baseline, 1% suspension topical to right eye

Row | SMILES | Lowering of IOP (in words) [1] | Paired t value of IOP change ([1]; 30 min) | Paired t value of IOP change ([1]; 90 min) | Average IOP change ([1]; 30 min) | Average IOP change ([1]; 60 min) | Average IOP change ([1]; 90 min) [mm Hg] | Average IOP change ([1]; 120 min) | Average difference in IOP between both eyes just prior to dosing [1] | Paired t value of IOP change ([2]; 60 min) | Paired t value of IOP change ([2]; 120 min) | IOP change, (IOPDET - IOPCET) - (IOPDEO - IOPCEO) ([2]; 30 min) | IOP change, (IOPDET - IOPCET) - (IOPDEO - IOPCEO) ([2]; 60 min) | drop in IOP (right eye) compared to no drug control [3] | IOP, right eye (R) [3, 4] [mmHg] | IOP, right eye (R) [3, 5] [mmHg] | IOP, right eye (R) [3, 6] [mmHg] | IOP, right eye (R) [3, 7] [mmHg] | IOP, right eye (R) [3, 8] [mmHg] | IOP, right eye (R) [3, 9] [mmHg] | IOP, right eye (R) [3, 10] [mmHg] | other results
1 | CCOc1ccc2nc(S(N)(=O)=O)sc2c1 [Ethoxzolamide, reference compound] | No lowering of IOP could be detected | 1.27 | 0.73 | -.17 mm Hg | +.33 mm Hg | -0 | +.17 mm Hg | +.67 mm Hg | 0.40 | 0.50 | +1 mm Hg and +2 mm Hg and -2 mm Hg and -3 mm Hg and 0 mm Hg | +3 mm Hg and -2 mm Hg and +2 mm Hg and +1 mm Hg and 0 mm Hg | no effect | 21.07 | 21.60 | 21.33 | 20.33 | 18.80 | 16.4 | 14.94 | Statistical significance of IOP change ([1]; 30 min): N.S.; Statistical significance of IOP change ([1]; 60 min): N.S.; Statistical significance of IOP change ([1]; 90 min): N.S.; Statistical significance of IOP change ([1]; 120 min): N.S.; IOP change, (IOPDET - IOPCET) - (IOPDEO - IOPCEO) ([2]; 90 min): +1 mm Hg and 0 mm Hg and +2 mm Hg and -2 mm Hg and -3 mm Hg; IOP change, (IOPDET - IOPCET) - (IOPDEO - IOPCEO) ([2]; 120 min): 0 mm Hg and -1 mm Hg and +2 mm Hg; Difference in IOP between both eyes just prior to dosing (IOPDEO - IOPCEO) [2]: +4 mm Hg and +1 mm Hg and -1 mm Hg and 0 mm Hg; Effectiveness in lowering IOP, comparison (in words) [2]: no effectiveness
2 | CCOc1ccc2nc(S(=O)(=O)NC)sc2c1 [6-Ethoxy-N-methyl-2-benzothiazolesulfonamide] | – | – | – | – | – | – | – | – | – | – | – | – | significant drop | 19.10 | 19.90 | 20.33 | 18.57 | 17.24 | 17.00 | 14.10 | –
3 | NS(=O)(=O)c1nc2ccc(Cl)cc2s1 [6-Chloro benzothiazole-2-sulfonamide, 6-Chloro-2-benzothiazolesulfonamide] | small but significant reduction of intraocular pressure; also recorded: statistically significant | -1.834 | -1.63 | -0.93 mm Hg | -1.27 mm Hg | -0.87 | -1.47 mm Hg | +0.27 mm Hg | -2.106 | -2.11 | -3 mm Hg and -5 mm Hg and +1 mm Hg and 0 mm Hg and -4 mm Hg and -1 mm Hg and -2 mm Hg and +2 mm Hg | -2 mm Hg and -4 mm Hg and +1 mm Hg and -3 mm Hg and +2 mm Hg and -1 mm Hg and +3 mm Hg | significant drop | 19.72 | 20.00 | 21.39 | 19.11 | 18.78 | 17.8 | 14.33 | Probability (1.t.) of IOP change ([1]; 30 min): 0.05; Probability (1.t.) of IOP change ([1]; 60 min): 0.025; Probability (1.t.) of IOP change ([1]; 90 min): 0.1; Probability (1.t.) of IOP change ([1]; 120 min): 0.025; IOP change, (IOPDET - IOPCET) - (IOPDEO - IOPCEO) ([2]; 90 min): -1 mm Hg and -2 mm Hg and +1 mm Hg and -3 mm Hg and +2 mm Hg and 0 mm Hg and +3 mm Hg; IOP change, (IOPDET - IOPCET) - (IOPDEO - IOPCEO) ([2]; 120 min): -2 mm Hg and -4 mm Hg and +3 mm Hg and -1 mm Hg and -5 mm Hg and 0 mm Hg and -6 mm Hg and +1 mm Hg; Difference in IOP between both eyes just prior to dosing (IOPDEO - IOPCEO) [2]: +1 mm Hg and +2 mm Hg and 0 mm Hg and +3 mm Hg and -2 mm Hg and -1 mm Hg and -3 mm Hg; Effectiveness in lowering IOP, comparison (in words) [2]: pharmacologically active (lowered IOP); Effectiveness (in words) ([3]; water loading model, topical): proved effective
